Experiment [1] in a line: Preliminary in vivo evidence, topical PS hydrogel, migraine pain (Example 12).
The target of the next experiment is T1, COX-2 (Homo sapiens, UniProt P35354).
T1 sequence (P35354 18-604): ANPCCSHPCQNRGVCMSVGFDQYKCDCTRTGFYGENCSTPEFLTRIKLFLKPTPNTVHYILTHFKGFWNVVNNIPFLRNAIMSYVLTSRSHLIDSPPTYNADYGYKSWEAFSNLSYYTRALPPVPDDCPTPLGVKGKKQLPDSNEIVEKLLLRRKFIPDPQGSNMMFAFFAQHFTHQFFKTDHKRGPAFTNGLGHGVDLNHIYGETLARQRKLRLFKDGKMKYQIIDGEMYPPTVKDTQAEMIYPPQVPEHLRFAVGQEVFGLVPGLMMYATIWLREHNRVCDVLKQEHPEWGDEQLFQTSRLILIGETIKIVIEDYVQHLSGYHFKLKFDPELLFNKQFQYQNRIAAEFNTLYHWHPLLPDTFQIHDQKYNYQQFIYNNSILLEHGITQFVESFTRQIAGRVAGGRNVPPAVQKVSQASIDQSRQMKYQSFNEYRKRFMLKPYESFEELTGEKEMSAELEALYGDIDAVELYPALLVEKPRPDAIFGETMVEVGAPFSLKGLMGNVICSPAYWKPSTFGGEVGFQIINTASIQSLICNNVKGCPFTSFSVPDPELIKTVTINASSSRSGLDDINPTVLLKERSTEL
The note with it: background statement; cited from earlier work.

This is an account of results in patent US20250345350A1, “TREATING PAIN ASSOCIATED WITH CENTRAL SENSITIZATION” (Medicon Pharmaceuticals, Inc., priority 2022, published 2025).

The structures appear in SMILES notation.

Turning to `CCOP(=O)(OCC)OCCCCOC(=O)CC1=C(C)/C(=C/c2ccc([S+](C)[O-])cc2)c2ccc(F)cc21` (centres unmarked) [PS, phosphosulindac], in experiment [1], the “analgesic effect on migraine pain” value is on record as “striking analgesic effect”. Moreover, the “inhibition of COX-2” value on COX-2 is recorded as “does not inhibit”.
